Experiments:
Type in all cases: physicochemical
[1] = Light resistance test of printed images with xenon lamp; conditions: grade of color difference ΔE; ink with 6 parts dye on glossy photo paper; xenon lamp 0.36 W/m^2, 60% RH, 24° C., 50 h
From the text: Prepare the ink composition according to the formula described in Table 1 containing the products obtained in the above embodiment as the magenta colorant, and filter the ink composition with a […] membrane filter to obtain the aqueous magenta ink composition of the present invention. Add triethanolamine to adjust the ink composition pH to 8˜10 and add deionized water to make the total volume to reach 100 parts by weight.
Use an ink-jet printer (Epson 270 manufactured by Epson Company), glossy photo paper (Epson) and the above described ink compositions for ink-jet printing.
Irradiate the printed glossy photo paper manufactured by Canon and Epson with Xenon-lamp Weathering Test Chamber ZG-P (manufactured by China Surui Company) at 60% RH and 24° C. with illuminance of 0.36 W/m^2 for 50 h, and check the color difference (ΔE) before and after the test. The color difference (ΔE) is calculated from the differences of values of L*, a*, b* before and after the test in the above described color measurement system (Unterlab) by the followings formula: ΔE=((difference of L*)^2+(difference of a*)^2+(difference of b*)^2)^1/2.
Three grades will be divided for the evaluation based on the following benchmark: […]

[2] = Evaluation of water solubility of the dye; conditions: solubility of the dye in water
From the text: (D) Evaluation of Water Solubility of the Dye (g/100 g Water)

[3] = Evaluation of long-term stability of the dye in aqueous solvent systems; set-up: key: ∘: No precipitation; Δ: Slight precipitation; x: Notable; conditions: 20 parts dye, 70 parts water, 10 parts ethylene glycol; 50° C. 7 d, then 0° C. 7 d; precipitation on filtering
Description: Heat and dissolve the system consisting of 20 parts of dyes, 70 parts of water and 10 parts of ethylene glycol; after the solution cools down, store it airtight at a constant temperature of 50° C. for 7 d; cool it to 0° C. and store it at the same temperature for 7 d; filter the solution and evaluate it in 3 grades based on the following benchmark: […]

[4] = Gas (ozone) resistance of the printed images; conditions: grade of color difference ΔE; 40 ppm ozone, 60% RH, 24° C., 6 h
From the text: Prepare the ink composition according to the formula described in Table 1 containing the products obtained in the above embodiment as the magenta colorant, and filter the ink composition with a […] membrane filter to obtain the aqueous magenta ink composition of the present invention. Add triethanolamine to adjust the ink composition pH to 8˜10 and add deionized water to make the total volume to reach 100 parts by weight. Use an ink-jet printer (Epson 270 manufactured by Epson Company), glossy photo paper (Epson) and the above described ink compositions for ink-jet printing. Place the printed images in the Ozone Weathering Test Chamber (manufactured by China Surui Company) at 40 ppm ozone, 60% RH and 24° C. for 6 h. Calculate the color difference (ΔE) before and after the test in the same manner as described in (1) above and evaluate it in 3 grades based on the following benchmark: [table]

UV resistance of printed images [1]	Long-term stability of the dye in aqueous solvent systems [3]	Ozone resistance of printed images [4]	Structure (SMILES)	Water solubility of the dye [2]
∘ (ΔE < 10)	∘	∘ (ΔE < 10)	O=C([O-])CCCS(=O)(=O)c1cc(S(=O)(=O)[O-])c(Nc2cc(S(=O)(=O)[O-])c3[nH]c(=O)c(C(=O)OCc4cccc(S(=O)(=O)[O-])c4)c4c3c2C(=O)c2ccccc2-4)c(S(=O)(=O)[O-])c1.[Na+].[Na+].[Na+].[Na+].[Na+] [Dp14]	∘ (The solubility of the dye in water >30)
∘ (ΔE < 10)	Δ	∘ (ΔE < 10)	Cn1c(=O)c(C(=O)OCc2cccc3ccccc23)c2c3c(c(Nc4ccc(S(=O)(=O)[O-])cc4S(=O)(=O)[O-])ccc31)C(=O)c1ccccc1-2.[Na+].[Na+] [Dye2, reference compound]	Δ (The solubility of the dye in water >15-20)
x (ΔE > 20)	Δ	x (ΔE > 20)	O=C(Nc1cc(S(=O)(=O)[O-])cc2cc(S(=O)(=O)[O-])c(N=Nc3ccc4cc(S(=O)(=O)CCOS(=O)(=O)[O-])ccc4c3S(=O)(=O)[O-])c(O)c12)c1ccccc1.[Na+].[Na+].[Na+].[Na+] [C.I. reactive red 180, reference compound]	–
∘ (ΔE < 10)	∘	∘ (ΔE < 10)	O=C([O-])CCCS(=O)(=O)c1ccc(S(=O)(=O)[O-])c(Nc2cc(S(=O)(=O)[O-])c3[nH]c(=O)c(C(=O)OCc4cccc([N+](=O)[O-])c4)c4c3c2C(=O)c2ccccc2-4)c1.[Na+].[Na+].[Na+] [Dm7]	∘ (The solubility of the dye in water >30)
∘ (ΔE < 10)	∘	∘ (ΔE < 10)	O=C([O-])CCCS(=O)(=O)c1cc(S(=O)(=O)[O-])c(Nc2cc(S(=O)(=O)[O-])c3[nH]c(=O)c(C(=O)OCc4cccc(Cl)c4)c4c3c2C(=O)c2ccccc2-4)c(S(=O)(=O)[O-])c1.[Na+].[Na+].[Na+].[Na+] [Dp10]	∘ (The solubility of the dye in water >30)
∘ (ΔE < 10)	∘	∘ (ΔE < 10)	O=C([O-])CCCS(=O)(=O)c1cc(S(=O)(=O)[O-])c(Nc2cc(S(=O)(=O)[O-])c3[nH]c(=O)c(C(=O)OCc4ccccc4)c4c3c2C(=O)c2ccccc2-4)c(S(=O)(=O)[O-])c1.[Na+].[Na+].[Na+].[Na+] [Dp4]	∘ (The solubility of the dye in water >30)
∘ (ΔE < 10)	∘	∘ (ΔE < 10)	O=C([O-])CCCS(=O)(=O)c1ccc(S(=O)(=O)[O-])c(Nc2cc(S(=O)(=O)[O-])c3[nH]c(=O)c(C(=O)OCc4ccccc4)c4c3c2C(=O)c2ccccc2-4)c1.[Na+].[Na+].[Na+] [Dm3]	∘ (The solubility of the dye in water >30)
∘ (ΔE < 10)	∘	∘ (ΔE < 10)	O=C([O-])CCCS(=O)(=O)c1cc(S(=O)(=O)[O-])c(Nc2cc(S(=O)(=O)[O-])c3[nH]c(=O)c(C(=O)OCc4cccc5ccccc45)c4c3c2C(=O)c2ccccc2-4)c(S(=O)(=O)[O-])c1.[Na+].[Na+].[Na+].[Na+] [Dp17]	Δ (The solubility of the dye in water >15-20)
∘ (ΔE < 10)	∘	∘ (ΔE < 10)	O=C([O-])CCCS(=O)(=O)c1cc(S(=O)(=O)[O-])c(Nc2cc(S(=O)(=O)[O-])c3[nH]c(=O)c(C(=O)[O-])c4c3c2C(=O)c2ccccc2-4)c(S(=O)(=O)[O-])c1.[Na+].[Na+].[Na+].[Na+].[Na+] [Dp2]	∘ (The solubility of the dye in water >30)
x (ΔE > 20)	Δ	x (ΔE > 20)	O=S(=O)([O-])c1cc(Nc2nc(Nc3ccc(/C=C/c4ccc(Nc5nc(Nc6cc(S(=O)(=O)[O-])cc7cc(S(=O)(=O)[O-])c(N=Nc8ccccc8)c(O)c67)nc(N6CCOCC6)n5)cc4S(=O)(=O)[O-])c(S(=O)(=O)[O-])c3)nc(N3CCOCC3)n2)c2c(O)c(N=Nc3ccccc3)c(S(=O)(=O)[O-])cc2c1.[Na+].[Na+].[Na+].[Na+].[Na+].[Na+] [C.I. direct red 227, reference compound]	x (The solubility of the dye in water <15)
∘ (ΔE < 10)	∘	∘ (ΔE < 10)	Cc1ccc(COC(=O)c2c3c4c(c(Nc5cc(S(=O)(=O)CCCC(=O)[O-])ccc5S(=O)(=O)[O-])cc(S(=O)(=O)[O-])c4[nH]c2=O)C(=O)c2ccccc2-3)cc1.[Na+].[Na+].[Na+] [Dm5]	∘ (The solubility of the dye in water >30)

Structure (SMILES)	UV resistance of printed images [1]	Long-term stability of the dye in aqueous solvent systems [3]	Ozone resistance of printed images [4]	Water solubility of the dye [2]
O=C([O-])CCCS(=O)(=O)c1ccc(S(=O)(=O)[O-])c(Nc2cc(S(=O)(=O)[O-])c3[nH]c(=O)c(C(=O)[O-])c4c3c2C(=O)c2ccccc2-4)c1.[Na+].[Na+].[Na+].[Na+] [Dm1]	∘ (ΔE < 10)	∘	∘ (ΔE < 10)	∘ (The solubility of the dye in water >30)

— patent US9011589B2, “Magenta dyes and their preparation methods and applications” (Dalian University of Technology, priority 2012, dated 2015)
